pEC50: −log10 of the molar value. Activity calls are given as the source filed them. No cut-off for these calls is given here.
Columns and labels:
[1] = biological target: T1, Free fatty acid receptor 2 (Homo sapiens) (UniProt O15552); test: Agonist activity at human FFA2R expressed in Flp-InT-REx 293 cells assessed as reduction of forskolin-induced cAMP production up to 30 uM after 30 mins by TR-FRET assay relative to control; assay type: functional, cell-based
T1 sequence (whole entry): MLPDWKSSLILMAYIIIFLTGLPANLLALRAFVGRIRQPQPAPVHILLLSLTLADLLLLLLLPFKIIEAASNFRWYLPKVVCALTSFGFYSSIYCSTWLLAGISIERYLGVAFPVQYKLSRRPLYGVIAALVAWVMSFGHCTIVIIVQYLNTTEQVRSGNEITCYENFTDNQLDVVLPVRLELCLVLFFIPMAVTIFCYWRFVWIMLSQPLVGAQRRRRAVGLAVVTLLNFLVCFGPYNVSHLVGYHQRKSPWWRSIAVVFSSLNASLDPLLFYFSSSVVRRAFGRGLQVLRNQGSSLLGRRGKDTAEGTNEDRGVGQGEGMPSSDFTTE

[2] = biological target: T1, Free fatty acid receptor 2 (Homo sapiens); test: Agonist activity to human FFA2R expressed in HEK293T cells assessed as induction beta-arrestin-2 recruitment up to 30 uM after 10 mins by BRET assay relative control; assay type: functional, cell-based
[3] = biological target: T1, Free fatty acid receptor 2 (Homo sapiens); test: Agonist activity to human FFA2R expressed in HEK293T cells assessed as induction beta-arrestin-2 recruitment at 100 uM after 10 mins by BRET assay relative to control; assay type: functional, cell-based
[4] = AUC (0 to infinity) in Balb/c mouse at 5 mg/kg, ip by HPLC-MS/MS analysis; assay type: ADME, organism-based; design: dose 5 mg/kg, time infinity, route intraperitoneal; conditions: in vivo
[5] = Half life in Balb/c mouse at 5 mg/kg, ip by HPLC-MS/MS analysis; assay type: ADME, organism-based; conditions: in vivo
[6] = biological target: T2, Free fatty acid receptor 2 (Mus musculus, UniProt Q8VCK6); test: Agonist activity at FFA2R in mouse mature adipocytes assessed as inhibition of isoproterenol-induced glycerol production
T2 sequence (Q8VCK6 whole entry): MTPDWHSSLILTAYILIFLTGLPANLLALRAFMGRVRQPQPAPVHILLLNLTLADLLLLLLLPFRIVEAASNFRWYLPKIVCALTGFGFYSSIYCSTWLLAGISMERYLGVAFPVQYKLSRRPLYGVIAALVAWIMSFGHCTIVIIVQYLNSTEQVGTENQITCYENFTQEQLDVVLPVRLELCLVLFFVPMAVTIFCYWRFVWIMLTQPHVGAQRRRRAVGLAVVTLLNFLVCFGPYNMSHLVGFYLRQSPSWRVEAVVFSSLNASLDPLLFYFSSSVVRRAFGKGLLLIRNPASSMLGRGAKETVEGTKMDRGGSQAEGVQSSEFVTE

With `O=C(O)[C@@H]1CS[C@H](c2ccccc2Cl)N1C(=O)c1ccccc1` the Activity [1] was “inactive” and the Activity [2] was “inactive”.
In the case of `Cc1noc(C)c1-c1ccc(C(=O)N2[C@@H](c3ccccn3)SC[C@H]2C(=O)O)cc1`, the Activity [1] was “inactive”.
In the case of `COc1ccccc1-c1ccc(C(=O)N2[C@H](C(=O)O)CS[C@@H]2C(C)(C)C)cc1`, the Activity [1] was “inactive” and the Activity [3] was 50%.
Work on `COc1ccccc1-c1ccc(C(=O)N2[C@@H](c3ccccc3Cl)CC[C@H]2C(=O)O)cc1` yielded an AUC(0-inf) [4] of 417 ng·h/mL and a half-life [5] of 50 min.
For `COc1ccccc1-c1ccc(C(=O)N2[C@H](C(=O)O)CO[C@@H]2C(C)(C)C)cc1`, the Activity [1] was “inactive” and the Activity [2] was “inactive”.
`CCC(=O)O` [PROPIONIC ACID] showed a pEC50 [6] of 3.60.

— ChEMBL document CHEMBL4152367, “Discovery of a Potent Thiazolidine Free Fatty Acid Receptor 2 Agonist with Favorable Pharmacokinetic Properties” (J Med Chem, 2018)
